Measured values published in ChEMBL document CHEMBL1781873, “Synthesis and antibacterial property of pyrrolopyrano quinolinones and pyrroloquinolines” (2011).
The source made the active and inactive calls. No cut-off for these calls is given here.

Key:
[1] = system: Salmonella typhi; experiment: Antibacterial activity against Salmonella typhi at 10 ug after 24 hrs by disc diffusion assay; format: functional, Salmonella enterica subsp. enterica serovar Typhi; conditions: Salmonella enterica, read-out: IZ
[2] = system: Salmonella typhi; experiment: Antibacterial activity against Salmonella typhi at 15 ug after 24 hrs by disc diffusion assay; format: functional, Salmonella enterica subsp. enterica serovar Typhi; conditions: Salmonella enterica, read-out: IZ
[3] = system: Salmonella typhi; experiment: Antibacterial activity against Salmonella typhi at 20 ug after 24 hrs by disc diffusion assay; format: functional, Salmonella enterica subsp. enterica serovar Typhi; conditions: Salmonella enterica, read-out: IZ
[4] = system: Salmonella typhi; experiment: Antibacterial activity against Salmonella typhi at 25 ug after 24 hrs by disc diffusion assay; format: functional, Salmonella enterica subsp. enterica serovar Typhi; conditions: Salmonella enterica, read-out: IZ
[5] = system: Bacillus subtilis; experiment: Antibacterial activity against Bacillus subtilis at 10 ug after 24 hrs by disc diffusion assay; format: functional; conditions: read-out: IZ
[6] = system: Bacillus subtilis; experiment: Antibacterial activity against Bacillus subtilis at 15 ug after 24 hrs by disc diffusion assay; format: functional; conditions: read-out: IZ
[7] = system: Bacillus subtilis; experiment: Antibacterial activity against Bacillus subtilis at 20 ug after 24 hrs by disc diffusion assay; format: functional; conditions: read-out: IZ
[8] = system: Bacillus subtilis; experiment: Antibacterial activity against Bacillus subtilis at 25 ug after 24 hrs by disc diffusion assay; format: functional; conditions: read-out: IZ
[9] = system: Escherichia coli; experiment: Inhibition of Escherichia coli DNA gyrase assessed as inhibition of DNA supercoiling activity using pBR322 DNA as substrate at […] after 3 hrs by agarose gel electrophoresis
[10] = system: Escherichia coli; experiment: Inhibition of Escherichia coli DNA gyrase -mediated DNA relaxation using pBR322 DNA as substrate at […] after 1 hrs by agarose gel electrophoresis
[11] = system: Escherichia coli; experiment: Inhibition of DNA gyrase mRNA expression in Escherichia coli measured up to 24 hrs by RT-PCR; format: functional, organism-based
[12] = system: Staphylococcus aureus; experiment: Antibacterial activity against Staphylococcus aureus after 18 to 20 hrs by broth micro dilution assay; format: functional
[13] = system: Escherichia coli; experiment: Antibacterial activity against Escherichia coli after 18 to 20 hrs by broth micro dilution assay; format: functional
[14] = system: Klebsiella pneumoniae; experiment: Antibacterial activity against Klebsiella pneumoniae after 18 to 20 hrs by broth micro dilution assay; format: functional
[15] = system: Pseudomonas aeruginosa; experiment: Antibacterial activity against Pseudomonas aeruginosa after 18 to 20 hrs by broth micro dilution assay; format: functional
[16] = system: Salmonella typhi; experiment: Antibacterial activity against Salmonella typhi after 18 to 20 hrs by broth micro dilution assay; format: functional, Salmonella enterica subsp. enterica serovar Typhi; conditions: Salmonella enterica
[17] = system: Bacillus subtilis; experiment: Antibacterial activity against Bacillus subtilis after 18 to 20 hrs by broth micro dilution assay; format: functional
[18] = system: Staphylococcus aureus; experiment: Antibacterial activity against Staphylococcus aureus at 5 ug after 24 hrs by disc diffusion assay; format: functional; conditions: read-out: IZ
[19] = system: Staphylococcus aureus; experiment: Antibacterial activity against Staphylococcus aureus at 10 ug after 24 hrs by disc diffusion assay; format: functional; conditions: read-out: IZ
[20] = system: Staphylococcus aureus; experiment: Antibacterial activity against Staphylococcus aureus at 15 ug after 24 hrs by disc diffusion assay; format: functional; conditions: read-out: IZ
[21] = system: Staphylococcus aureus; experiment: Antibacterial activity against Staphylococcus aureus at 20 ug after 24 hrs by disc diffusion assay; format: functional; conditions: read-out: IZ
[22] = system: Staphylococcus aureus; experiment: Antibacterial activity against Staphylococcus aureus at 25 ug after 24 hrs by disc diffusion assay; format: functional; conditions: read-out: IZ
[23] = system: Escherichia coli; experiment: Antibacterial activity against Escherichia coli at 5 ug after 24 hrs by disc diffusion assay; format: functional; conditions: read-out: IZ
[24] = system: Escherichia coli; experiment: Antibacterial activity against Escherichia coli at 10 ug after 24 hrs by disc diffusion assay; format: functional; conditions: read-out: IZ
[25] = system: Escherichia coli; experiment: Antibacterial activity against Escherichia coli at 15 ug after 24 hrs by disc diffusion assay; format: functional; conditions: read-out: IZ
[26] = system: Escherichia coli; experiment: Antibacterial activity against Escherichia coli at 20 ug after 24 hrs by disc diffusion assay; format: functional; conditions: read-out: IZ
[27] = system: Escherichia coli; experiment: Antibacterial activity against Escherichia coli at 25 ug after 24 hrs by disc diffusion assay; format: functional; conditions: read-out: IZ
[28] = system: Pseudomonas aeruginosa; experiment: Antibacterial activity against Pseudomonas aeruginosa at 5 ug after 24 hrs by disc diffusion assay; format: functional; conditions: read-out: IZ
[29] = system: Pseudomonas aeruginosa; experiment: Antibacterial activity against Pseudomonas aeruginosa at 10 ug after 24 hrs by disc diffusion assay; format: functional; conditions: read-out: IZ
[30] = system: Pseudomonas aeruginosa; experiment: Antibacterial activity against Pseudomonas aeruginosa at 15 ug after 24 hrs by disc diffusion assay; format: functional; conditions: read-out: IZ
[31] = system: Pseudomonas aeruginosa; experiment: Antibacterial activity against Pseudomonas aeruginosa at 20 ug after 24 hrs by disc diffusion assay; format: functional; conditions: read-out: IZ
[32] = system: Pseudomonas aeruginosa; experiment: Antibacterial activity against Pseudomonas aeruginosa at 25 ug after 24 hrs by disc diffusion assay; format: functional; conditions: read-out: IZ
[33] = system: Klebsiella pneumoniae; experiment: Antibacterial activity against Klebsiella pneumoniae at 5 ug after 24 hrs by disc diffusion assay; format: functional; conditions: read-out: IZ
[34] = system: Klebsiella pneumoniae; experiment: Antibacterial activity against Klebsiella pneumoniae at 10 ug after 24 hrs by disc diffusion assay; format: functional; conditions: read-out: IZ
[35] = system: Klebsiella pneumoniae; experiment: Antibacterial activity against Klebsiella pneumoniae at 15 ug after 24 hrs by disc diffusion assay; format: functional; conditions: read-out: IZ
[36] = system: Klebsiella pneumoniae; experiment: Antibacterial activity against Klebsiella pneumoniae at 20 ug after 24 hrs by disc diffusion assay; format: functional; conditions: read-out: IZ
[37] = system: Klebsiella pneumoniae; experiment: Antibacterial activity against Klebsiella pneumoniae at 25 ug after 24 hrs by disc diffusion assay; format: functional; conditions: read-out: IZ
[38] = system: Salmonella typhi; experiment: Antibacterial activity against Salmonella typhi at 5 ug after 24 hrs by disc diffusion assay; format: functional, Salmonella enterica subsp. enterica serovar Typhi; conditions: Salmonella enterica, read-out: IZ

## CCC1[C@@H]2c3c(c4ccccc4n(C)c3=O)OC(C)(C)[C@H]2CN1OS(=O)(=O)c1ccc(C)cc1 (mixture of isomers)
[1]
  zone of inhibition at 10 µg/disc: 16 mm
[2]
  zone of inhibition at 15 µg/disc: 18 mm
[3]
  zone of inhibition at 20 µg/disc: 20 mm
[4]
  zone of inhibition at 25 µg/disc: 22 mm
[5]
  zone of inhibition at 10 µg/disc: 7 mm
[6]
  zone of inhibition at 15 µg/disc: 9 mm
[7]
  zone of inhibition at 20 µg/disc: 10 mm
[8]
  zone of inhibition at 25 µg/disc: 12 mm
[9]
  DNA gyrase inhibition (active/inactive): Active
[10]
  inhibition: Active
[11]
  inhibition of gyrase mRNA expression (active/not active): Active
[12]
  MIC50: 0.5 µg/mL
  MIC90: 0.5 µg/mL
[13]
  MIC50: 0.5 µg/mL
  MIC90: 1 µg/mL
[14]
  MIC50: 0.5 µg/mL
  MIC90: 0.5 µg/mL
[15]
  MIC50: 0.5 µg/mL
  MIC90: 0.5 µg/mL
[16]
  MIC50: 0.5 µg/mL
  MIC90: 0.5 µg/mL
[17]
  MIC50: 0.5 µg/mL
  MIC90: 0.5 µg/mL
[18]
  zone of inhibition at 5 µg/disc: 9 mm
[19]
  zone of inhibition at 10 µg/disc: 12 mm
[20]
  zone of inhibition at 15 µg/disc: 13 mm
[21]
  zone of inhibition at 20 µg/disc: 14 mm
[22]
  zone of inhibition at 25 µg/disc: 17 mm
[23]
  zone of inhibition at 5 µg/disc: 10 mm
[24]
  zone of inhibition at 10 µg/disc: 16 mm
[25]
  zone of inhibition at 15 µg/disc: 18 mm
[26]
  zone of inhibition at 20 µg/disc: 20 mm
[27]
  zone of inhibition at 25 µg/disc: 23 mm
[28]
  zone of inhibition at 5 µg/disc: 10 mm
[29]
  zone of inhibition at 10 µg/disc: 16 mm
[30]
  zone of inhibition at 15 µg/disc: 17 mm
[31]
  zone of inhibition at 20 µg/disc: 22 mm
[32]
  zone of inhibition at 25 µg/disc: 24 mm
[33]
  zone of inhibition at 5 µg/disc: 20 mm
[34]
  zone of inhibition at 10 µg/disc: 26 mm
[35]
  zone of inhibition at 15 µg/disc: 30 mm
[36]
  zone of inhibition at 20 µg/disc: 34 mm
[37]
  zone of inhibition at 25 µg/disc: 36 mm
[38]
  zone of inhibition at 5 µg/disc: 10 mm

## CCC1[C@@H]2c3c(c4ccccc4n(C)c3=O)OC(c3ccccc3)[C@H]2CN1OS(=O)(=O)c1ccc(C)cc1 (mixture of isomers)
[1]
  zone of inhibition at 10 µg/disc: 16 mm
[2]
  zone of inhibition at 15 µg/disc: 18 mm
[3]
  zone of inhibition at 20 µg/disc: 20 mm
[4]
  zone of inhibition at 25 µg/disc: 22 mm
[5]
  zone of inhibition at 10 µg/disc: 7 mm
[6]
  zone of inhibition at 15 µg/disc: 9 mm
[7]
  zone of inhibition at 20 µg/disc: 10 mm
[8]
  zone of inhibition at 25 µg/disc: 12 mm
[9]
  DNA gyrase inhibition (active/inactive): Active
[10]
  inhibition: Active
[11]
  inhibition of gyrase mRNA expression (active/not active): Active
[12]
  MIC50: 128 µg/mL
  MIC90: 128 µg/mL
[13]
  MIC50: 128 µg/mL
  MIC90: 128 µg/mL
[14]
  MIC50: 128 µg/mL
  MIC90: 128 µg/mL
[15]
  MIC50: 128 µg/mL
  MIC90: 128 µg/mL
[16]
  MIC50: 128 µg/mL
  MIC90: 128 µg/mL
[17]
  MIC50: 128 µg/mL
  MIC90: 128 µg/mL
[18]
  zone of inhibition at 5 µg/disc: 9 mm
[19]
  zone of inhibition at 10 µg/disc: 12 mm
[20]
  zone of inhibition at 15 µg/disc: 13 mm
[21]
  zone of inhibition at 20 µg/disc: 14 mm
[22]
  zone of inhibition at 25 µg/disc: 17 mm
[23]
  zone of inhibition at 5 µg/disc: 10 mm
[24]
  zone of inhibition at 10 µg/disc: 16 mm
[25]
  zone of inhibition at 15 µg/disc: 18 mm
[26]
  zone of inhibition at 20 µg/disc: 20 mm
[27]
  zone of inhibition at 25 µg/disc: 23 mm
[28]
  zone of inhibition at 5 µg/disc: 10 mm
[29]
  zone of inhibition at 10 µg/disc: 16 mm
[30]
  zone of inhibition at 15 µg/disc: 17 mm
[31]
  zone of inhibition at 20 µg/disc: 22 mm
[32]
  zone of inhibition at 25 µg/disc: 24 mm
[33]
  zone of inhibition at 5 µg/disc: 20 mm
[34]
  zone of inhibition at 10 µg/disc: 26 mm
[35]
  zone of inhibition at 15 µg/disc: 30 mm
[36]
  zone of inhibition at 20 µg/disc: 34 mm
[37]
  zone of inhibition at 25 µg/disc: 36 mm
[38]
  zone of inhibition at 5 µg/disc: 10 mm
